In article PMC10507085, “Pharmacological inhibition of TBK1/IKKε blunts immunopathology in a murine model of SARS-CoV-2 infection” (Nature Communications, 2023):

Tests used:
Experiment in all cases: biochemical
Design in all cases: KINOMEscan competition binding, DNA-tagged kinase against immobilised ligand, qPCR read-out
Conditions in all cases: read-out: Percent Control
[1] = target: T1, JAK1(JH1domain-catalytic) (Homo sapiens, UniProt P23458)
T1 construct: JH1 domain catalytic

PRKCI = PRKCI (Homo sapiens, UniProt P41743)
EPHB4 = EPHB4 (Homo sapiens, UniProt P54760)
SIK2 = SIK2 (Homo sapiens, UniProt Q9H0K1)
Sequence of SIK2 (Q9H0K1 whole entry): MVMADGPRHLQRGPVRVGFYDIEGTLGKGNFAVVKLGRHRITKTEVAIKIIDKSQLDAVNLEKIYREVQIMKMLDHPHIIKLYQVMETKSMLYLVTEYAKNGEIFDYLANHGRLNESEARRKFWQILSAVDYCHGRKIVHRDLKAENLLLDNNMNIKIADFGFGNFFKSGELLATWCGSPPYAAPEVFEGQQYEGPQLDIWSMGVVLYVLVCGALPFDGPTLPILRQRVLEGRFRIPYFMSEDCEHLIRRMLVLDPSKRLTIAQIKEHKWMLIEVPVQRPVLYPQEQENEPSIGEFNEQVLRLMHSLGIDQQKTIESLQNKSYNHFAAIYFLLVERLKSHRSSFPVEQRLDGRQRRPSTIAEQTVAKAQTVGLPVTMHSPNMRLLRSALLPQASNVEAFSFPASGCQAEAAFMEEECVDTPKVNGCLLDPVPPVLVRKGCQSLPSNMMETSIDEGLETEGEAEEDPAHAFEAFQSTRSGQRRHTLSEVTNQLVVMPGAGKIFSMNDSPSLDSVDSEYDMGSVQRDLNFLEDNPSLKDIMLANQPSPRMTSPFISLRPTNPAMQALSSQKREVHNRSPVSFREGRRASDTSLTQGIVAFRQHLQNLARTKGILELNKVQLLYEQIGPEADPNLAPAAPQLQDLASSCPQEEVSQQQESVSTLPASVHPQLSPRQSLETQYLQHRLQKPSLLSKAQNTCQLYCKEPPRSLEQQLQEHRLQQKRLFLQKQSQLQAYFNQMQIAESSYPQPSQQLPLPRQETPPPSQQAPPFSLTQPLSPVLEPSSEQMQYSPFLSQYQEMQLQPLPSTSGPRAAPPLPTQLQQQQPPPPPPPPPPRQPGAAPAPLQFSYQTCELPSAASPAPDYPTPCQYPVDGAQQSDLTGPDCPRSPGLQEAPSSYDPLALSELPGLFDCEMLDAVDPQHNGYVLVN

GSK3B = GSK3B (Homo sapiens, UniProt P49841)
PRKCQ = PRKCQ (Homo sapiens, UniProt Q04759)
NEK6 = NEK6 (Homo sapiens, UniProt Q9HC98)
Sequence of NEK6 (Q9HC98 whole entry): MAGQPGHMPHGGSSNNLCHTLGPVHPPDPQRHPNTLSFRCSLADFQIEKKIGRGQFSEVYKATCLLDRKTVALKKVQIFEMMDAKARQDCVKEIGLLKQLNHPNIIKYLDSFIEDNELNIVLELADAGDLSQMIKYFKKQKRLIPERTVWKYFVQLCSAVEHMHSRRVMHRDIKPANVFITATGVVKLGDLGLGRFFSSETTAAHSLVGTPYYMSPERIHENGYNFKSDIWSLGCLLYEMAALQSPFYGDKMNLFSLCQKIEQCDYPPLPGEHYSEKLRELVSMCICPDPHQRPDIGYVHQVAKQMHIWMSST

SGK3 = SGK3 (Homo sapiens, UniProt Q96BR1)
ADRBK2 = target: T2, ADRBK2 (Homo sapiens, UniProt P35626)
T2 construct: gene GRK3

MELK = MELK (Homo sapiens, UniProt Q14680)
MARK2 = MARK2 (Homo sapiens, UniProt Q7KZI7)
CSNK2A1 = CSNK2A1 (Homo sapiens, UniProt P68400)
PRKG1 = PRKG1 (Homo sapiens, UniProt Q13976)
MAP3K12 = MAP3K12 (Homo sapiens, UniProt Q12852)
TNNI3K = TNNI3K (Homo sapiens, UniProt Q59H18)
Sequence of TNNI3K (Q59H18 whole entry): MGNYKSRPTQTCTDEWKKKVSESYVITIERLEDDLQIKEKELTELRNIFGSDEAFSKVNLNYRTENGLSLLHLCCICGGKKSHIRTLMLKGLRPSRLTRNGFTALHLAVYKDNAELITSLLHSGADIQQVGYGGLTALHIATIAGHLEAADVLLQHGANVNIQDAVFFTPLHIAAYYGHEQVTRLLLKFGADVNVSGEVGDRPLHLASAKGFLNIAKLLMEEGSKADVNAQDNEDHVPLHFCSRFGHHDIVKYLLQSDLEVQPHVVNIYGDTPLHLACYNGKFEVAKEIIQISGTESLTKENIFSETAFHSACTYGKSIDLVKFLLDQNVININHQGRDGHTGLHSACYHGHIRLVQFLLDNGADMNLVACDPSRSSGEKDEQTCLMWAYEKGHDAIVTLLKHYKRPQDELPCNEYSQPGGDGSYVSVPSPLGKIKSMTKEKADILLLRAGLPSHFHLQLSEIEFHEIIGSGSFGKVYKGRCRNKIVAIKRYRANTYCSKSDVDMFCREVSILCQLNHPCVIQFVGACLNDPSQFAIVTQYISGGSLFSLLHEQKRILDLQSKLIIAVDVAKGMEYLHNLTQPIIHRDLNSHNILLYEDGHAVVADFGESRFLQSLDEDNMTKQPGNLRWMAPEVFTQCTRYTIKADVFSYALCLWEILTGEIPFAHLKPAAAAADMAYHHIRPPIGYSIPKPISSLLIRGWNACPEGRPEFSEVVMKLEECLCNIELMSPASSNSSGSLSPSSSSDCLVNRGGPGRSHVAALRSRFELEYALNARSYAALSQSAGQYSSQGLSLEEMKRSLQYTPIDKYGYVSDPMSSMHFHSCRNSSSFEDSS

PIK3C2B = PIK3C2B (Homo sapiens, UniProt O00750)
MAPKAPK2 = MAPKAPK2 (Homo sapiens, UniProt P49137)
AAK1 = AAK1 (Homo sapiens, UniProt Q2M2I8)
Sequence of AAK1 (Q2M2I8 whole entry): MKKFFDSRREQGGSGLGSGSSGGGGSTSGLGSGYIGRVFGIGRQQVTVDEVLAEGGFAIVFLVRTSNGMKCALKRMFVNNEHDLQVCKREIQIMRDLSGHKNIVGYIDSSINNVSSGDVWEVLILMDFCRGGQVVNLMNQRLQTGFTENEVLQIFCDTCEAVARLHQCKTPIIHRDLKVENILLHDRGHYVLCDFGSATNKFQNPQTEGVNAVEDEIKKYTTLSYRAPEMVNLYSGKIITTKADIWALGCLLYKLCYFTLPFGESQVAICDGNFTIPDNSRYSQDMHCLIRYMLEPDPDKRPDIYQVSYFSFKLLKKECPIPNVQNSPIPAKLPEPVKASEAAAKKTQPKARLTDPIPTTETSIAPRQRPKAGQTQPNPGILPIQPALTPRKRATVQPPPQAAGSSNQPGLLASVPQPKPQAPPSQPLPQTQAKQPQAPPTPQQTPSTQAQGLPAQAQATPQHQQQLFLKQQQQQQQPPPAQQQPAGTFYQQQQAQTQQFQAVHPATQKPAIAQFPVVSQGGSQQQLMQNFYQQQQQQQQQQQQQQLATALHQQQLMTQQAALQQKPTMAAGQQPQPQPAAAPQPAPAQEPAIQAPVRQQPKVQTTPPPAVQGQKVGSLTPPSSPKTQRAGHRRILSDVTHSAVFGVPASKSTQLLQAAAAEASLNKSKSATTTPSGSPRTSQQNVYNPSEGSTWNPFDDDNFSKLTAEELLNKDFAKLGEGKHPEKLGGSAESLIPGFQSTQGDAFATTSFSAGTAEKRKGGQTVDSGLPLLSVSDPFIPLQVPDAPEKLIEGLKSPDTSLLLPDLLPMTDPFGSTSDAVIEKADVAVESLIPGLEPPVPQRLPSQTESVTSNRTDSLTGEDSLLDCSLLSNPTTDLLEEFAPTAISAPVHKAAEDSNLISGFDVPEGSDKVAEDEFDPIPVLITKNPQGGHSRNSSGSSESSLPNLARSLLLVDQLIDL

TAOK3 = TAOK3 (Homo sapiens, UniProt Q9H2K8)
Sequence of TAOK3 (Q9H2K8 whole entry): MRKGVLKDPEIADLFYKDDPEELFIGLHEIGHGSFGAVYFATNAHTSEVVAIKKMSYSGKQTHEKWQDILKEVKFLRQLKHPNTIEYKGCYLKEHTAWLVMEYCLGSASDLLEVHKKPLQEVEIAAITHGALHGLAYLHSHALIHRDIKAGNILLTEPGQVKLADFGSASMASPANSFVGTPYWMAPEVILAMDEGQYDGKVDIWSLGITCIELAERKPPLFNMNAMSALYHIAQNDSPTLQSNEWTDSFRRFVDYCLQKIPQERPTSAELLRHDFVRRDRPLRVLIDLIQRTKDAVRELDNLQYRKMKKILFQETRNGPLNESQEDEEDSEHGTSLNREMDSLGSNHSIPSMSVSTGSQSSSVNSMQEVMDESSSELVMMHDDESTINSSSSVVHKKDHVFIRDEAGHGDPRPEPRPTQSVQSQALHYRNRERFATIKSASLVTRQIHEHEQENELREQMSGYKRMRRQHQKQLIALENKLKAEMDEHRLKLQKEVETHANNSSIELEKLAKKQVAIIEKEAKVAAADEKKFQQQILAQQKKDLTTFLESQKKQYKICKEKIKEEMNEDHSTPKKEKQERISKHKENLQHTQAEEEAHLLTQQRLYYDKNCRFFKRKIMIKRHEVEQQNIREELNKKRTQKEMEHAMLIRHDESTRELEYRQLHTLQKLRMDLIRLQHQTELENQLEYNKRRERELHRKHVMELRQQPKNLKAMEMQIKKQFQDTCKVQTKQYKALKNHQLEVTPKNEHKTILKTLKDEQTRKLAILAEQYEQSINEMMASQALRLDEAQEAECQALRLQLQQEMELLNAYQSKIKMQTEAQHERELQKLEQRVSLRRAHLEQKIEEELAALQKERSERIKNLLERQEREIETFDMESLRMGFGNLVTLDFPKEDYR

STK38 = STK38 (Homo sapiens, UniProt Q15208)

T1 sequence (P23458 whole entry, the tested form may be a part): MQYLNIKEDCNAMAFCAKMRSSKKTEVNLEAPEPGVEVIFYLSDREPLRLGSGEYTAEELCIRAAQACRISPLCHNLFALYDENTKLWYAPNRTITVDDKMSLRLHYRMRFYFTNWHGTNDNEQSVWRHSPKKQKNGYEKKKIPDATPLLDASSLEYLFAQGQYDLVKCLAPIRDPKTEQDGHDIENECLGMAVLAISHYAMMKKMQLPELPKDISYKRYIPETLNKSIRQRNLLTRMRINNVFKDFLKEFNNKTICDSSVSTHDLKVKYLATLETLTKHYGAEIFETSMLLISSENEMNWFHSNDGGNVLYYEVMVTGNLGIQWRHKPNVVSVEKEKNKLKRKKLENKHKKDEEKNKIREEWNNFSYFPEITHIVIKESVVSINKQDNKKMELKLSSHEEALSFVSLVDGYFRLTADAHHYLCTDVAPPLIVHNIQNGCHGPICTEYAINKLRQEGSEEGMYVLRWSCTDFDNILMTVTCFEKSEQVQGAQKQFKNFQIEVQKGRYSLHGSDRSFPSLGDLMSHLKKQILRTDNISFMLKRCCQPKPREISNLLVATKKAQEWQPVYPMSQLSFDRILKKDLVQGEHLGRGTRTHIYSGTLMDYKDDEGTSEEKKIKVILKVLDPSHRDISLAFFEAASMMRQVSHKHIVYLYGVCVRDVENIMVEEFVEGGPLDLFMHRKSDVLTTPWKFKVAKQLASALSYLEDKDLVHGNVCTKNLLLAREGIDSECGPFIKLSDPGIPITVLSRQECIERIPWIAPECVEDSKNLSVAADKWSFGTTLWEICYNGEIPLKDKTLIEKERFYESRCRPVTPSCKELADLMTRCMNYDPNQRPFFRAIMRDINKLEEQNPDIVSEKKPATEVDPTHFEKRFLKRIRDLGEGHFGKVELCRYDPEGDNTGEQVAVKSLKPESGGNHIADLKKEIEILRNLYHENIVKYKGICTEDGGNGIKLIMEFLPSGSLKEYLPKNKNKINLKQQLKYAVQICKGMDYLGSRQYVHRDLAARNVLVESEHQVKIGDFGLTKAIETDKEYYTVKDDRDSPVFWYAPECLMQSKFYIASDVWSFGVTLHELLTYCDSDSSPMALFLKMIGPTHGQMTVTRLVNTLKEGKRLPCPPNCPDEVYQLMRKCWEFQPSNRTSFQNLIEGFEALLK

SMILES: Oc1ccc(C2=Cc3ccc(O)cc3OC2)cc1 [compound 1, idronoxil]
- remaining binding at 10 µM [1]: 93%
- remaining binding at 10 µM (PRKCI): 70%
- remaining binding at 10 µM (EPHB4): 90%
- remaining binding at 10 µM (SIK2): 87%
- remaining binding at 10 µM (GSK3B): 92%
- remaining binding at 10 µM (PRKCQ): 73%
- remaining binding at 10 µM (NEK6): 100%
- remaining binding at 10 µM (SGK3): 49%
- remaining binding at 10 µM (ADRBK2): 85%
- remaining binding at 10 µM (MELK): 64%
- remaining binding at 10 µM (MARK2): 84%
- remaining binding at 10 µM (CSNK2A1): 49%
- remaining binding at 10 µM (PRKG1): 74%
- remaining binding at 10 µM (MAP3K12): 75%
- remaining binding at 10 µM (TNNI3K): 99%
- remaining binding at 10 µM (PIK3C2B): 83%
- remaining binding at 10 µM (MAPKAPK2): 65%
- remaining binding at 10 µM (AAK1): 61%
- remaining binding at 10 µM (TAOK3): 53%
- remaining binding at 10 µM (STK38): 68%
